Species on record: Rattus norvegicus
Assay: Open TG-GATES - Regimen: Single
Assay type: toxicity, organism-based, Sprague-Dawley
Design: regimen Single, gender Male, age 6 weeks
Settings: in vivo, iv, route intravenous injection; for Eos / Fbg / Ht / Lym / MCH / MCHC / MCV / Mono / PT / Plat / RBC / Ret / Bas / Hb / Neu: tissue Blood; for KIDNEY_L / KIDNEY_R / KIDNEY_TOTAL: tissue Kidney; for LIVER: tissue Liver; for ALP / ALT / AST / CRE / DBIL / GLC / K / Na / RALB / TBIL / TC / TG / TP / gamma-GTP / LDH: tissue Plasma
[1] = 3 mg/kg, 3 h, dose level Middle
[2] = 3 mg/kg, 6 h, dose level Middle
[3] = 3 mg/kg, 9 h, dose level Middle
[4] = 3 mg/kg, 24 h, dose level Middle
[5] = 10 mg/kg, 24 h, dose level High

## COc1cccc2c1C(=O)c1c(O)c3c(c(O)c1C2=O)C[C@@](O)(C(=O)CO)C[C@@H]3O[C@H]1C[C@H](N)[C@H](O)[C@H](C)O1 [DOXORUBICIN]
[1]
  Eos: 0.6%
  Fbg: 260.4 mg/dL
  Ht: 38%
  Lym: 78.6%
  MCH: 21.6 pg
  MCHC: 34.7%
  MCV: 62.4 fL
  Mono: 3.8%
  PT: 16.2 s
  Plat: 113.3 x10_4/uL
  RBC: 609.6 x10_4/ul
  Ret: 6.7%
  KIDNEY_L: 0.9 g
  KIDNEY_R: 0.9 g
  KIDNEY_TOTAL: 1.8 g
  LIVER: 9.4 g
  ALP: 1266.2 IU/L
  ALT: 43.2 IU/L
  AST: 80.2 IU/L
  CRE: 0.2 mg/dL
  DBIL: 0.002 mg/dL
  GLC: 174.2 mg/dL
  K: 4.1 meq/L
  Na: 141.2 meq/L
  RALB: 3 g/dL
  TBIL: 0.022 mg/dL
  TC: 65.6 mg/dL
  TG: 99.4 mg/dL
  TP: 5.1 g/dL
  gamma-GTP: 1 IU/L
[2]
  TERMINAL_BW: 208.1 g
  Bas: 0%
  Eos: 0.8%
  Fbg: 294 mg/dL
  Ht: 37.7%
  Lym: 79%
  MCH: 21.7 pg
  MCHC: 34.3%
  MCV: 63.3 fL
  Mono: 4.2%
  PT: 16 s
  Plat: 130.3 x10_4/uL
  RBC: 595.4 x10_4/ul
  Ret: 7%
  KIDNEY_L: 0.9 g
  KIDNEY_R: 0.9 g
  KIDNEY_TOTAL: 1.8 g
  LIVER: 8.4 g
  ALP: 1404.2 IU/L
  AST: 77.2 IU/L
  CRE: 0.1 mg/dL
  DBIL: 0.002 mg/dL
  GLC: 177 mg/dL
  K: 4 meq/L
  LDH: 128.2 IU/L
  Na: 140.6 meq/L
  RALB: 2.9 g/dL
  TBIL: 0.032 mg/dL
  TC: 73.2 mg/dL
  TG: 59.6 mg/dL
  TP: 5.1 g/dL
  gamma-GTP: 1.8 IU/L
[3]
  TERMINAL_BW: 210 g
  Bas: 0%
  Eos: 0.6%
  Fbg: 280.6 mg/dL
  Hb: 13 g/dL
  Ht: 38.2%
  Lym: 76%
  MCH: 21.1 pg
  MCHC: 34.2%
  MCV: 61.8 fL
  Mono: 4.2%
  Neu: 18%
  PT: 15.8 s
  Plat: 117 x10_4/uL
  RBC: 617.6 x10_4/ul
  Ret: 6.9%
  KIDNEY_L: 0.9 g
  KIDNEY_R: 0.9 g
  KIDNEY_TOTAL: 1.8 g
  LIVER: 8.1 g
  ALP: 1233.4 IU/L
  ALT: 33.2 IU/L
  AST: 69.2 IU/L
  CRE: 0.1 mg/dL
  DBIL: 0 mg/dL
  GLC: 186.8 mg/dL
  K: 4.3 meq/L
  Na: 140.6 meq/L
  RALB: 2.8 g/dL
  TBIL: 0.018 mg/dL
  TC: 71 mg/dL
  TG: 70.2 mg/dL
  TP: 5.1 g/dL
  gamma-GTP: 1.2 IU/L
[4]
  TERMINAL_BW: 215.4 g
  Bas: 0%
  Eos: 0.2%
  Fbg: 277.8 mg/dL
  Hb: 13.4 g/dL
  Ht: 37.4%
  Lym: 80.8%
  MCH: 21.6 pg
  MCHC: 35.7%
  MCV: 60.4 fL
  Mono: 4%
  Neu: 13.2%
  PT: 16.6 s
  Plat: 118.9 x10_4/uL
  RBC: 620 x10_4/ul
  Ret: 4.5%
  KIDNEY_L: 0.9 g
  KIDNEY_R: 0.9 g
  KIDNEY_TOTAL: 1.9 g
  ALP: 1504.4 IU/L
  AST: 68.2 IU/L
  CRE: 0.2 mg/dL
  DBIL: 0.002 mg/dL
  GLC: 191.4 mg/dL
  K: 4.5 meq/L
  LDH: 124.6 IU/L
  Na: 143 meq/L
  RALB: 3 g/dL
  TBIL: 0.018 mg/dL
  TC: 75 mg/dL
  TG: 88.6 mg/dL
  TP: 5.2 g/dL
  gamma-GTP: 1 IU/L
10 mg/kg, 3 h, dose level High
  TERMINAL_BW: 211.4 g
  Bas: 0%
  Eos: 0.6%
  Fbg: 275.8 mg/dL
  Ht: 37.5%
  Lym: 60.4%
  MCH: 21.8 pg
  MCHC: 34.9%
  MCV: 62.3 fL
  Mono: 8.8%
  Neu: 27.4%
  PT: 16.5 s
  Plat: 121.7 x10_4/uL
  RBC: 603 x10_4/ul
  Ret: 6.2%
  KIDNEY_L: 0.9 g
  KIDNEY_R: 0.9 g
  KIDNEY_TOTAL: 1.9 g
  LIVER: 9.3 g
  ALP: 1462.4 IU/L
  ALT: 43 IU/L
  AST: 86.6 IU/L
  CRE: 0.1 mg/dL
  DBIL: 0 mg/dL
  GLC: 171.4 mg/dL
  K: 4.6 meq/L
  LDH: 187.2 IU/L
  Na: 141.4 meq/L
  RALB: 2.9 g/dL
  TBIL: 0.008 mg/dL
  TC: 75.4 mg/dL
  TG: 140 mg/dL
  TP: 5.1 g/dL
  gamma-GTP: 1.6 IU/L
10 mg/kg, 6 h, dose level High
  TERMINAL_BW: 205.6 g
  Bas: 0%
  Eos: 0.2%
  Fbg: 275.8 mg/dL
  Ht: 38%
  Lym: 64%
  MCH: 21.6 pg
  MCHC: 34%
  MCV: 63.4 fL
  Mono: 6.4%
  Neu: 26.4%
  PT: 16.2 s
  Plat: 118.6 x10_4/uL
  RBC: 599 x10_4/ul
  Ret: 6.9%
  KIDNEY_L: 0.9 g
  KIDNEY_R: 0.9 g
  KIDNEY_TOTAL: 1.8 g
  LIVER: 8.7 g
  ALP: 1468.4 IU/L
  AST: 86.4 IU/L
  CRE: 0.2 mg/dL
  DBIL: 0 mg/dL
  GLC: 190.8 mg/dL
  K: 4 meq/L
  LDH: 180 IU/L
  Na: 141 meq/L
  RALB: 2.9 g/dL
  TBIL: 0.036 mg/dL
  TC: 69.4 mg/dL
  TG: 54.4 mg/dL
  TP: 5.1 g/dL
  gamma-GTP: 1.6 IU/L
10 mg/kg, 9 h, dose level High
  TERMINAL_BW: 206.9 g
  Bas: 0%
  Eos: 0.4%
  Fbg: 279.2 mg/dL
  Hb: 13 g/dL
  Ht: 38.2%
  Lym: 56.2%
  MCH: 21.3 pg
  MCHC: 34.1%
  MCV: 62.5 fL
  Mono: 5.6%
  Neu: 35.4%
  PT: 15.9 s
  Plat: 118.9 x10_4/uL
  RBC: 611.6 x10_4/ul
  Ret: 6.1%
  KIDNEY_L: 0.9 g
  KIDNEY_R: 0.9 g
  KIDNEY_TOTAL: 1.9 g
  LIVER: 8.2 g
  ALP: 1273.6 IU/L
  AST: 84.2 IU/L
  CRE: 0.1 mg/dL
  DBIL: 0.002 mg/dL
  GLC: 186.2 mg/dL
  K: 4.1 meq/L
  Na: 139.6 meq/L
  RALB: 3 g/dL
  TBIL: 0.036 mg/dL
  TC: 68.4 mg/dL
  TG: 56.8 mg/dL
  TP: 5.2 g/dL
  gamma-GTP: 1.2 IU/L
[5]
  TERMINAL_BW: 206.3 g
  Bas: 0%
  Eos: 0.8%
  Fbg: 323 mg/dL
  Ht: 37.9%
  Lym: 74.2%
  MCH: 22.1 pg
  MCHC: 35.9%
  MCV: 61.6 fL
  Mono: 3%
  Neu: 20.8%
  PT: 15.9 s
  Plat: 131.1 x10_4/uL
  RBC: 615.6 x10_4/ul
  Ret: 3.2%
  KIDNEY_L: 0.9 g
  KIDNEY_R: 0.9 g
  KIDNEY_TOTAL: 1.8 g
  LIVER: 9.1 g
  ALP: 1298.4 IU/L
  ALT: 28 IU/L
  CRE: 0.2 mg/dL
  DBIL: 0 mg/dL
  GLC: 208.8 mg/dL
  K: 4.9 meq/L
  LDH: 129.2 IU/L
  Na: 141.2 meq/L
  RALB: 2.9 g/dL
  TBIL: 0.014 mg/dL
  TC: 82.4 mg/dL
  TG: 60 mg/dL
  TP: 5.2 g/dL
  gamma-GTP: 1.4 IU/L

Reference: ChEMBL document CHEMBL3885861, “Open TG-GATES”
